From patent publication US20050074879A1, “Antisense oligonucleotide modulation of STAT3 expression” (priority 2000, published 2005)
Oligonucleotides are written 5' to 3', each unit as a sugar letter and its base; * is a phosphorothioate linkage, no mark a phosphodiester; rarer units and linkages stand in square brackets, end groups in braces. Plain capitals give the bases only. e = 2'-O-(2-methoxyethyl) (MOE); [5mC] = 5-methylcytosine; d = 2'-deoxy (DNA)

System: Human STAT3 mRNA
Assay: Inhibition of human STAT3 mRNA levels in A549 cells, 75 nM, real-time PCR (Table 13)
Type: cell-based
Conditions: 75 nM oligonucleotide with LIPOFECTIN, real-time PCR PPS 199, percent inhibition relative to untreated control cells, average of 2 experiments
Procedure: Oligonucleotide activity is assayed by quantitation of STAT3 mRNA levels by real-time PCR (RT-PCR) using the ABI PRISMS 7700 Sequence Detection System (PE-Applied Biosystems, Foster City, Calif.) according to manufacturer's instructions. This is a closed-tube, non-gel-based, fluorescence detection system which allows high-throughput quantitation of polymerase chain reaction (PCR) products in real-time. As opposed to standard PCR, in which amplification products are quantitated after the PCR is completed, products in RT-PCR are quantitated as they accumulate. This is accomplished by including in the PCR reaction an oligonucleotide probe that anneals specifically between the forward and reverse PCR primers, and contains two fluorescent dyes. A reporter dye (e.g., JOE or FAM, PE-Applied Biosystems, Foster City, Calif.) is attached to the 5′ end of the probe and a quencher dye (e.g., TAMRA, PE-Applied Biosystems, Foster City, Calif.) is attached to the 3′ end of the probe. When the probe and dyes are intact, reporter dye emission is quenched by the proximity of the 3′ quencher dye. During amplification, annealing of the probe to the target sequence creates a substrate that can be cleaved by the 5′-exonuclease activity of Taq polymerase. […] With each cycle, additional reporter dye molecules are cleaved from their respective probes, and the fluorescence intensity is monitored at regular (six-second) intervals by laser optics built into the ABI PRISM™ 7700 Sequence Detection System. In each assay, a series of parallel reactions containing serial dilutions of mRNA from untreated control samples generates a standard curve that is used to quantitate the percent inhibition after antisense oligonucleotide treatment of test samples.
RT-PCR reagents are obtained from PE-Applied Biosystems, Foster City, Calif. RT-PCR reactions are carried out by adding 25 l PCR cocktail (1× TAQMAN7 buffer A, 5.5 mM MgCl2, 300 µM each of DATP, dCTP and dGTP, 600 µM of dUTP, 100 nM each of forward primer, reverse primer, and probe, 20 U RNAse inhibitor, 1.25 units AMPLITAQ GOLD7, and 12.5 U MuLV reverse transcriptase) to 96 well plates containing 25 l poly(A) mRNA solution. The RT reaction is carried out by incubation for 30 minutes at 48° C. following a 10 minute incubation at 95° C. to activate the AMPLITAQ GOLD7, 40 cycles of a two-step PCR protocol are carried out: 95° C. for 15 seconds (denaturation) followed by 60° C. for 1.5 minutes (annealing/extension).
The compounds were analyzed for their effect on STAT3 mRNA levels in A549 cells. The human lung carcinoma cell line A549 was obtained from the American Type Culture Collection (ATCC) (Manassas, Va.). A549 cells were routinely cultured in DMEM basal media (Invitrogen Corporation, Carlsbad, Calif.) supplemented with 10% fetal calf serum (Invitrogen Corporation, Carlsbad, Calif.), 100 units/mL penicillin, and 100 ug/mL streptomycin (Invitrogen Corporation, Carlsbad, Calif.). Cells were routinely passaged by trypsinization and dilution when they reached 90% confluence.
When cells reached 65-75% confluency, they were treated with oligonucleotide. For cells grown in 96-well plates, wells were washed once with […] OPTI-MEM-1 reduced-serum medium (Invitrogen Corporation, Carlsbad, Calif.) and then treated with 130 µL of OPTI-MEM-1 containing […] LIPOFECTIN (Invitrogen Corporation, Carlsbad, Calif.) and 75 nM of the compounds in Table 13. Cells were treated and data were obtained in duplicate. Untreated cells served as controls. After 4-7 hours of treatment at 37° C., the medium was replaced with fresh medium. Cells were harvested 16-24 hours after oligonucleotide treatment. STAT3 mRNA levels in A549 cells were quantitated by real-time PCR as described by other methods herein.
Probes and primers to human STAT3 were designed to hybridize to a human STAT3 sequence, using published sequence information (incorporated herein as SEQ ID NO: 1). For STAT 3 the PCR primers were: • forward primer: […]

Substance | % Inhib (inhibition of human STAT 3 mRNA levels) [%]
337334 (antisense e[5mC]*e[5mC]*e[5mC]*eA*eG*dA*dA*dG*dG*dA*dG*dA*dA*dG*d[5mC]*e[5mC]*e[5mC]*eT*eT*eG) [compound 337334] | 85
337346 (antisense eA*eA*eT*eG*eT*d[5mC]*dA*dG*dG*dA*dT*dA*dG*dA*dG*eA*eT*eA*eG*eA) [compound 337346] | 55
337295 (antisense eT*eG*e[5mC]*e[5mC]*eG*d[5mC]*d[5mC]*dT*d[5mC]*dT*dT*d[5mC]*d[5mC]*dA*dG*eT*e[5mC]*eA*eG*e[5mC]) [compound 337295] | 82
337289 (antisense eT*e[5mC]*e[5mC]*eA*eG*d[5mC]*dT*dG*d[5mC]*dT*dG*d[5mC]*dA*dT*d[5mC]*eT*eT*e[5mC]*eT*eG) [compound 337289] | 83
337318 (antisense eG*eG*eT*e[5mC]*eT*d[5mC]*dT*dA*dG*dG*dT*d[5mC]*dA*dA*dT*e[5mC]*eT*eT*eG*eA) [compound 337318] | 74
337245 (antisense eA*eG*e[5mC]*e[5mC]*eT*d[5mC]*dT*dG*d[5mC]*dA*d[5mC]*d[5mC]*d[5mC]*dT*d[5mC]*eA*eT*eG*eT*eT) [compound 337245] | 77
337292 (antisense eT*eT*e[5mC]*eT*eG*d[5mC]*dA*d[5mC]*dG*dT*dA*d[5mC]*dT*d[5mC]*d[5mC]*eA*eT*e[5mC]*eG*e[5mC]) [compound 337292] | 81
337381 (antisense eT*eT*eA*eA*eA*dA*dA*dG*dT*dG*d[5mC]*dA*dA*dT*dG*e[5mC]*e[5mC]*eA*eG*eG) [compound 337381] | 86
337377 (antisense eG*e[5mC]*eT*eT*eA*d[5mC]*dA*dG*dA*dA*dA*d[5mC]*dA*dG*dG*e[5mC]*eA*eG*eA*eA) [compound 337377] | 78
337343 (antisense eT*eG*eA*eT*e[5mC]*dT*dT*dA*dT*dA*dG*d[5mC]*d[5mC]*d[5mC]*dA*eT*eG*eA*eT*eG) [compound 337343] | 84
337314 (antisense e[5mC]*eT*e[5mC]*eA*eA*dA*dG*dG*dT*dG*dA*dT*d[5mC]*dA*dG*eG*eT*eG*e[5mC]*eA) [compound 337314] | 75
337281 (antisense eG*eG*eG*eT*eT*dT*dT*dA*dT*dA*dG*dT*dT*dG*dA*eA*eA*eT*e[5mC]*eA) [compound 337281] | 16
337356 (antisense eA*eT*eG*eG*eT*dA*dT*dT*dG*d[5mC]*dT*dG*d[5mC]*dA*dG*eG*eT*e[5mC]*eG*eT) [compound 337356] | 75
337358 (antisense eG*eA*e[5mC]*eA*eT*d[5mC]*dG*dG*d[5mC]*dA*dG*dG*dT*d[5mC]*dA*eA*eT*eG*eG*eT) [compound 337358] | 77
337301 (antisense eA*eG*eG*e[5mC]*eA*d[5mC]*dT*dT*dT*dT*d[5mC]*dA*dT*dT*dA*eA*eG*eT*eT*eT) [compound 337301] | 73
337291 (antisense e[5mC]*eT*eT*e[5mC]*eT*d[5mC]*d[5mC]*dG*d[5mC]*dA*dT*d[5mC]*dT*dG*dG*eT*e[5mC]*e[5mC]*eA*eG) [compound 337291] | 66
337296 (antisense e[5mC]*e[5mC]*eA*eG*eT*dT*dT*dT*d[5mC]*dT*dA*dG*d[5mC]*d[5mC]*dG*eA*eT*e[5mC]*eT*eA) [compound 337296] | 80

Substance | % Inhib (inhibition of human STAT 3 mRNA levels) [%]
337311 (antisense eT*e[5mC]*eT*e[5mC]*eT*dG*d[5mC]*dT*d[5mC]*d[5mC]*d[5mC]*dT*d[5mC]*dA*dG*eG*eG*eT*e[5mC]*eA) [compound 337311] | 61
337282 (antisense e[5mC]*eT*eT*eG*eA*dG*dG*dG*dT*dT*dT*dT*dA*dT*dA*eG*eT*eT*eG*eA) [compound 337282] | 58
337279 (antisense eG*eT*eT*eG*eA*dA*dA*dT*d[5mC]*dA*dA*dA*dG*dT*d[5mC]*eA*eT*e[5mC]*e[5mC]*eT) [compound 337279] | 78
337366 (antisense eA*eG*eA*eT*eA*dG*d[5mC]*dA*dG*dA*dA*dG*dT*dA*dG*eG*eA*eG*eA*eT) [compound 337366] | 66
337341 (antisense eT*eG*eA*eT*eG*dA*dT*dT*dT*d[5mC]*dA*dG*d[5mC]*dA*dA*eA*eT*eG*eA*e[5mC]) [compound 337341] | 74
337385 (antisense eT*eT*eA*eA*eG*dT*dT*dT*d[5mC]*dT*dT*dA*dA*dA*dT*eA*e[5mC]*eA*eG*eA) [compound 337385] | 70
337354 (antisense eT*eG*e[5mC]*eA*eG*dG*dT*d[5mC]*dG*dT*dT*dG*dG*dT*dG*eT*e[5mC]*eA*e[5mC]*eA) [compound 337354] | 62
337269 (antisense eT*eT*e[5mC]*eT*e[5mC]*dA*dA*dG*dA*dT*dA*d[5mC]*d[5mC]*dT*dG*e[5mC]*eT*e[5mC]*eT*eG) [compound 337269] | 74
337338 (antisense eA*eT*eG*eA*e[5mC]*dA*dT*dG*dT*dT*dG*dT*dT*d[5mC]*dA*eG*e[5mC]*eT*eG*e[5mC]) [compound 337338] | 80
337380 (antisense eG*e[5mC]*eA*eA*eT*dG*d[5mC]*d[5mC]*dA*dG*dG*dA*dG*dT*dA*eT*eG*eT*eA*eG) [compound 337380] | 83
337267 (antisense eA*eG*eA*eA*eA*d[5mC]*dT*dG*d[5mC]*dT*dT*dG*dA*dT*dT*e[5mC]*eT*eT*e[5mC]*eG) [compound 337267] | 62
337268 (antisense eG*eA*eT*eA*e[5mC]*d[5mC]*dT*dG*d[5mC]*dT*d[5mC]*dT*dG*dA*dA*eG*eA*eA*eA*e[5mC]) [compound 337268] | 75
337257 (antisense eG*eG*e[5mC]*eG*eG*d[5mC]*dG*dA*dG*dG*d[5mC]*dT*d[5mC]*d[5mC]*d[5mC]*eT*e[5mC]*eA*eG*eG) [compound 337257] | 80
337383 (antisense eT*eA*eA*eA*eA*dA*dG*dA*dA*dA*d[5mC]*d[5mC]*dT*dA*dG*eG*eG*e[5mC]*eT*eT) [compound 337383] | 81
337316 (antisense eT*e[5mC]*eA*eA*eT*d[5mC]*dT*dT*dG*dA*dG*dG*d[5mC]*d[5mC]*dT*eT*eG*eG*eT*eG) [compound 337316] | 59
337313 (antisense eA*eG*eG*eT*eG*dA*dT*d[5mC]*dA*dG*dG*dT*dG*d[5mC]*dA*eG*e[5mC]*eT*e[5mC]*e[5mC]) [compound 337313] | 61
337362 (antisense eA*eT*eT*eT*e[5mC]*d[5mC]*dA*dA*dA*d[5mC]*dT*dG*d[5mC]*dA*dT*e[5mC]*eA*eA*eT*eG) [compound 337362] | 69
